The values below come from patent publication US20120244071A1, “FTY720 HALOGENATED DERIVATIVES” (Novartis AG, priority 2009, published 2012).

The target in test [1] is T1, S1P1 (Homo sapiens, UniProt P21453). Put plainly: GTPγS binding assay using S1P receptor/CHO membranes preparation. The test is classed as biochemical. On the set-up: expressed in transfected cells; membrane preparation. The settings on record: [35S]GTPγS, CHO membranes, SPA. The protocol:
(§1) GTPγS Binding Assay Using S1P Receptor/CHO Membranes Preparation
(§2) The assay is based on the SPA technology (Amersham) and run in a 96 well format. Membranes are prepared from CHO cells stably expressing the S1P receptor of interest. Aliquots are stored at −80° C. Membranes (5-10 μg/well) resuspended in assay buffer (20 mM HEPES, pH7.4, 100 mM NaCl, 10 mM MgCl2 and 0.1% fat free BSA) containing 25 μg/mL Saponin and 10 μM GDP are mixed WGA-coated SPA beads (final conc. 1 mg/well). Ligand and [^35S]GTPγS (1250 Ci/mmol, final concentration 0.2 nM) are added and the plate sealed. After incubation at room temperature for 120 minutes under constant shaking the plates are centrifuged for 10 minutes at 1000×g to pellet the SPA beads. Then the plates are measured in a TopCount NXT instrument (Packard) and the data analyzed using GraphPad PRISM software.
Target sequence in this assay (P21453 whole entry): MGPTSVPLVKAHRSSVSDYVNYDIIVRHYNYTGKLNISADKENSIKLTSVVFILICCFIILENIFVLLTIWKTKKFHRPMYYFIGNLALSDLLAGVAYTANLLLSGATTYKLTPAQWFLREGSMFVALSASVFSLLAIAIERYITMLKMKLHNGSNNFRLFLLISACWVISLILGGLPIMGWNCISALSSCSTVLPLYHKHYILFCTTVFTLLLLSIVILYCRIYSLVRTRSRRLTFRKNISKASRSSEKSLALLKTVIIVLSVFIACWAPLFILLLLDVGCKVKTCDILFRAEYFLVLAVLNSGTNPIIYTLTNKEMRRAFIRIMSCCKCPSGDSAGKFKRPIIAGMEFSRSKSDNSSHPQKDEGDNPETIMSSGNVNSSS

Test [2] concerns the target T2, S1P5 (Homo sapiens, UniProt Q9H228). Described as above. The format is biochemical. Details: expressed in transfected cells; membrane preparation. As to conditions: [35S]GTPγS, CHO membranes, SPA. The protocol:
as §1, §2
Target sequence in this assay (Q9H228 whole entry): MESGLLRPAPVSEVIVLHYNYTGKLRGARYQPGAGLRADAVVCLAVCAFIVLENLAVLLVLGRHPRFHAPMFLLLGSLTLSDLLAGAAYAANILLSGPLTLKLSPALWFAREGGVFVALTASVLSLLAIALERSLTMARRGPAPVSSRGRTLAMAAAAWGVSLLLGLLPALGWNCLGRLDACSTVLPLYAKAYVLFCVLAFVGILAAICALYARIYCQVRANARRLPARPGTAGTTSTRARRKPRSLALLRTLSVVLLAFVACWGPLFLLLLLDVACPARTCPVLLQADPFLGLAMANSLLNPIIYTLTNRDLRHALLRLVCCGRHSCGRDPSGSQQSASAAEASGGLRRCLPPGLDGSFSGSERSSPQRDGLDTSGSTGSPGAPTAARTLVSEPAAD
For orientation: Binding of GTPγS marks nucleotide exchange on a G protein.

Test [3] addresses T3, S1P3 (Homo sapiens, UniProt Q99500). The description is as above. The test is classed as biochemical. On the set-up: expressed in transfected cells; membrane preparation. As to conditions: [35S]GTPγS, CHO membranes, SPA. The protocol: as §1, §2
Target sequence in this assay (Q99500 whole entry): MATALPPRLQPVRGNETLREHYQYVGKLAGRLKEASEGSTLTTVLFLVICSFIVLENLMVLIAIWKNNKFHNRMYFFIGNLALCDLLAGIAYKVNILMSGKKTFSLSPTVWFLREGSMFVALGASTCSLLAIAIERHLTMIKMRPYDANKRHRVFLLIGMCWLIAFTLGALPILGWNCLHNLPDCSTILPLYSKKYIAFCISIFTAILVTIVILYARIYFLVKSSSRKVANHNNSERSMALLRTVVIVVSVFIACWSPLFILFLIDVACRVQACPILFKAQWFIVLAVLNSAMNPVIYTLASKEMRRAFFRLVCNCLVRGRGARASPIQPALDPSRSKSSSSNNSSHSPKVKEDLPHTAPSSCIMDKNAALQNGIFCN
Test [4] concerns the target T4, S1P4 (Homo sapiens, UniProt O95977).
T4 sequence (O95977 1-384): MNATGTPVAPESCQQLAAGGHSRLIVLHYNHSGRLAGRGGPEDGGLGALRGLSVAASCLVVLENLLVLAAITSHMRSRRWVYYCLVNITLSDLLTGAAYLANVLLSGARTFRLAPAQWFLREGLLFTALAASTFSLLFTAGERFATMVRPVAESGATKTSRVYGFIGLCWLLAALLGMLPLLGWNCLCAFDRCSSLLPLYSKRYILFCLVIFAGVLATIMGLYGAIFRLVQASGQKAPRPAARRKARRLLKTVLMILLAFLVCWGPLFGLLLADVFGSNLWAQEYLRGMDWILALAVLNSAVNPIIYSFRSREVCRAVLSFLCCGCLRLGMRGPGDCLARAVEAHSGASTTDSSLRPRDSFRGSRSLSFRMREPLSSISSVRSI
Described as above. The format is biochemical. On the set-up: expressed in transfected cells; membrane preparation. The settings on record: [35S]GTPγS, CHO membranes, SPA. The protocol:
as §1, §2

Test [5] deals with peripheral blood lymphocytes. The experiment in a line: Blood Lymphocyte Depletion assay in Lewis rats. The format is in vivo. The settings on record: intravenous. The protocol:
Percent of Lymphocyte Depletion in Lewis Rats
The lymphocyte homing property may be measured in following Blood Lymphocyte Depletion assay:
A S1P receptor agonist or the vehicle is administered intravenously to rats. […] In this assay, the S1P receptor agonist depletes peripheral blood lymphocytes, e.g. by 50%, when administered at a dose of e.g. <20 mg/kg. Preferred S1P receptor agonists are further compounds which in addition to their S1P binding properties internalize/desensitize S1P receptors, thereby antagonizing inflammatory processes driven by lysophospholipids, including i.e. sphingosine 1-phosphate (S1P), sphingophosphorylcholine (SPC), lysophosphatidic acid (LPA), and others, on vasculature cells, e.g. endothelial cells. The internalization/desensitization capacity of compounds will be determined using CHO cells transfected with a human myc-tagged S1P receptor.

Test [6] addresses T3, S1P3. As to conditions: background statement, about 10-fold lower affinity; cited from earlier work.
Target sequence in this assay (Q99500 whole entry, species assumed): as the sequence (Q99500 whole entry) above
For test [7], the target named is T2, S1P5. As to conditions: background statement; cited from earlier work.
Target sequence in this assay (Q9H228 whole entry, species assumed): as the sequence (Q9H228 whole entry) above
The target in another test is S1P2 (Homo sapiens, UniProt O95136). As to conditions: background statement; cited from earlier work.
In test [8] the target is T1, S1P1. The settings on record: background statement; cited from earlier work.
Target sequence in this assay (P21453 whole entry, species assumed): as the sequence (P21453 whole entry) above
The target in test [9] is T4, S1P4. As to conditions: background statement; cited from earlier work.

Structures can show the parent of a compound that is named as a salt.

Chain of S1P2 (O95136 whole entry, species assumed): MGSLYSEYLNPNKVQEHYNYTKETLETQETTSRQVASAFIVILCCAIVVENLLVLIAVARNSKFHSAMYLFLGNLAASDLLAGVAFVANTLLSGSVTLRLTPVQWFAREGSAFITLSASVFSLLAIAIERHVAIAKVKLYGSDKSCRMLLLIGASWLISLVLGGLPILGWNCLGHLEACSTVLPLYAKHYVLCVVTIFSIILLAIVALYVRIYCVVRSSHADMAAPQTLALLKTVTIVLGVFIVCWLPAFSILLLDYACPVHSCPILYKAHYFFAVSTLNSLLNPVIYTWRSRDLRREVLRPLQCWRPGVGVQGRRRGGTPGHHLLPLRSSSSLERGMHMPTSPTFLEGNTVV

As for `CCCCCCCCc1ccc(CC[C@](N)(CO)COP(=O)(O)O)c(I)c1` [Example K, Phosphoric acid mono-{(S)-2-amino-2-hydroxymethyl-4-[2-(2-iodo-4-octylphenyl)butyl]}ester], the EC50 was found to be 0.24 nM on S1P1 [1], 1.5 nM on S1P5 [2], 46 nM at S1P3 [3] and 7.1 nM on S1P4 [4].

In the case of `CCCCCCCOc1ccc(CC[C@](N)(CO)COP(=O)(O)O)cc1I` [Example L, Phosphoric acid mono-{(S)-2-amino-2-hydroxymethyl-4-[2-(3-iodo-4-(heptyloxy)phenyl)butyl]}ester], the EC50 at S1P1 [1] amounted to 0.3 nM; at S1P5 [2], 0.7 nM.

`NC(CO)(CCc1ccc(OCCCC/C=C\I)cc1)COP(=O)(O)O` (racemic) [Example D, (R/S)-phosphoric acid mono-{2-amino-2-hydroxymethyl-4-[4-((z)-6-iodo-hex-5-enyloxy)-phenyl]-butyl}ester]: the EC50 is 1.3 nM at S1P1 [1], 1.1 nM on S1P5 [2], 3 nM at S1P3 [3] and 1.9 nM at S1P4 [4].

Consider `CCCCCCCCc1ccc(CCC(N)(CO)CO)c(I)c1` [Example H, 2-Amino-2-[2-(2-iodo-4-octylphenyl)ethyl]-1,3-propandiol], for which the “Percent of Lymphocyte Depletion” value in test [5] (2 hours post treatment) worked out at 67%; in test [5] (10 hours post treatment), 89%; in test [5] (24 hours post treatment), 89%.

In the case of `CCCCCCCCc1ccc(CC[C@](N)(CO)COP(=O)(O)O)cc1I` [Example J], the EC50 on S1P1 [1] came out at 0.17 nM; at S1P5 [2], 2 nM; at S1P3 [3], 84 nM; at S1P4 [4], 4.9 nM.

Turning to `CCCCCCCCc1ccc(CCC(N)(CO)CO)cc1` [FTY720, 2-amino-2-[2-(4-octylphenyl)ethyl]propane-1,3-diol], the “affinity to S1P3” value on S1P3 [6] was 3.1 nM. For the same molecule, the “affinity to S1P5” value at S1P5 [7] was 0.3 nM. In addition, the “binding to S1P2” value at S1P2 was “not”. The “affinity to S1P1” value on S1P1 [8] is given as 0.3 nM. Further, the “Percent of Lymphocyte Depletion” value in test [5] (2 hours post treatment) was 71%; in [5] (10 hours post treatment) it was 86%; in test [5] (24 hours post treatment) it was 86%. Further, the “affinity to S1P4” value on S1P4 [9] is on record as 0.6 nM.

For `NC(CO)(CCc1ccc(OCCCC/C=C/I)cc1)COP(=O)(O)O` (racemic) [Example B, (R/S)-phosphoric acid mono-{2-amino-2-hydroxymethyl-4-[4-((E)-6-iodo-hex-5-enyloxy)-phenyl]-butyl}ester], the EC50 at S1P1 [1] was 0.69 nM; at S1P5 [2], 0.62 nM; on S1P3 [3] it was 1.2 nM; at S1P4 [4], 0.84 nM.

Take `C=C(I)CCCCOc1ccc(CCC(N)(CO)COP(=O)(O)O)cc1` (racemic) [Example F, (R/S)-Phosphoric acid mono-{2-amino-2-hydroxymethyl-4-[4-(5-iodo-hex-5-enyloxy)-phenyl]-butyl}ester]: the EC50 on S1P1 [1] worked out at 1.6 nM; at S1P5 [2] it was 1.4 nM; at S1P3 [3], 8.6 nM; on S1P4 [4], 2.9 nM.

`CCCCCCCCc1ccc(CCC(N)(CO)CO)cc1I` [Example G, 2-Amino-2-[2-(3-iodo-4-octylphenyl)ethyl]-1,3-propandiol]: the “Percent of Lymphocyte Depletion” value in test [5] (2 hours post treatment) was 51%; in test [5] (10 hours post treatment), 88%; in [5] (24 hours post treatment) it was 87%.

As to `C=C(I)CCCCOc1ccc(CCC(N)(CO)CO)cc1` [Example E, 2-Amino-2-{2-[4-(5-iodo-hex-5-enyloxy)-phenyl]-ethyl}-propane-1,3-diol HCl salt], the “Percent of Lymphocyte Depletion” value came to 64% in test [5] (2 hours post treatment), 82% in test [5] (10 hours post treatment) and 80% in test [5] (24 hours post treatment).

As usually defined, the EC50 is the concentration giving half of the maximal effect. Read a low EC50 as higher potency in that assay.
